Source: patent US6399593B1, “Cyclic regimens using cyclic urea and cyclic amide derivatives” (Wyeth, priority 1999, dated 2002)

Tested on: T47D cells
Experiment: T47D cell proliferation assay (BrdU incorporation)
Type: cell-based
Conditions: second print headed Table 3, individual studies (Exp 1-3)
Experimental: The objective of this assay is the determination of progestational and antiprogestational potency by using a cell proliferation assay in T47D cells. A compound's effect on DNA synthesis in T47D cells is measured.
DMEM:F12 (1:1) (GIBCO, BRL) supplemented with 10% (v/v) fetal bovine serum (not heat-inactivated), 100 U/ml penicillin, […], and 2 mM GlutaMax (GIBCO, BRL).
Minimum Essential Medium (MEM) (#51200-038GIBCO, BRL) phenol red-free supplemented with 0.5% charcoal stripped fetal bovine serum, 100 U/ml penicillin, 200 mg/ml streptomycin, and 2 mM GlutaMax (GIBCO, BRL).
Stock T47D cells are maintained in growth medium. For BrdU incorporation assay, cells are plated in 96-well plates (Falcon, Becton Dickinson Labware) at 10,000 cells/well in growth medium. […]
At the end of BrdU labeling, the medium is removed and BrdU incorporation is measured using a cell proliferation ELISA kit (#RPN 250, Amersham Life Science) according to manufacturer's instructions. […] Then 25 μl of 1 M sulfuric acid is added to each well to stop color reaction and optical density is read in a plate reader at 450 nm within 5 min.
Square root-transformed data are used for analysis of variance and nonlinear dose response curve fitting for both agonist and antagonist modes. […] EC50 or IC50 values are calculated from the retransformed values. […]

SMILES: CC(=O)O[C@]1(C(C)=O)CC[C@H]2[C@@H]3C[C@H](C)C4=CC(=O)CC[C@]4(C)[C@H]3CC[C@@]21C [MPA, medroxyprogesterone acetate]
- EC50: 0.017 nM
